Consider 6 compounds from patent US7723068B2, “Gene cluster involved in safracin biosynthesis and its uses for genetic engineering” (PharmaMar, S.A., priority 2002, dated 2010).

For assay [1] the following is noted: different tumor cell lines; background; cited from earlier work.
Assay [2] relates to K-562. The conditions noted are these: Leukemia.
The subject of assay [3] is Bacillus subtilis. The experiment in a line: Antimicrobial activity on solid medium, disk. The class given is cell-based. As to conditions: Bacillus subtilis, 10 μg/disk (6 mm diameter). As to the method:
Antimicrobial activity: On solid medium Bacillus subtilis. 10 μg/disk (6 mm diameter): 10 mm inhibition zone Spectroscopic Data: […]

The test system of assay [4] is PROTEIN synthesis. Briefly: Secondary Screening, Macromolecules Synthesis PROTEIN. The assay is classed as cell-based. The conditions noted are these: Secondary Evaluation.
In assay [5] the test system is IGROV-ET. The conditions noted are these: Ovary.
For assay [6], the system named is SK-BR3. The conditions noted are these: Breast.
Assay [7] concerns SK-MEL-28. Briefly: cells. The conditions noted are these: Homo sapiens; for GI50: SK-MEL-28, read-out: GI50 SK-MEL-28; for CC50: SK-MEL-28, read-out: LC50 SK-MEL-28.
Assay [8] deals with HT29. The experiment in a line: cells. As to conditions: Homo sapiens; for GI50: HT-29, read-out: GI50 HT29; for CC50: HT-29, read-out: LC50 HT29.
The test system of assay [9] is LOVO-DOX. As to conditions: Colon.
Assay [10] relates to LN-caP. The experiment in a line: cells. The conditions noted are these: Homo sapiens, LNCaP; for GI50: read-out: GI50 LN-caP; for CC50: read-out: LC50 LN-caP.
For assay [11], the system named is DU-145. The conditions noted are these: Prostate.
Assay [12] deals with HELA. The conditions noted are these: Cervix.
Assay [13] deals with DNA synthesis. Briefly: Secondary Screening, Macromolecules Synthesis DNA. The conditions noted are these: Secondary Evaluation. The class given is cell-based.
Assay [14] concerns HT29. The conditions noted are these: Colon.
Assay [15] concerns A549. As to conditions: NSCL.
Assay [16] has as its system LOVO-DOX. Briefly: cells. As to conditions: for GI50: read-out: GI50 LOVO-DOX; for CC50: read-out: LC50 LOVO-DOX.
The subject of assay [17] is LOVO. As to conditions: Colon.
In assay [18] the test system is A549. Briefly: cells. The conditions noted are these: Homo sapiens; for GI50: A549, read-out: GI50 A549; for CC50: A549, read-out: LC50 A549.
Assay [19] concerns IGROV-ET. The experiment in a line: cells. As to conditions: for GI50: read-out: GI50 IGROV-ET; for CC50: read-out: LC50 IGROV-ET.
Assay [20] deals with LN-caP. As to conditions: Prostate.
The test system of assay [21] is IGROV. Briefly: cells. The conditions noted are these: for GI50: read-out: GI50 IGROV; for CC50: read-out: LC50 IGROV.
For assay [22], the system named is SK-MEL-28. As to conditions: Melanoma.
Assay [23] relates to HELA-APL. Briefly: cells. The conditions noted are these: for GI50: read-out: GI50 HELA-APL; for CC50: read-out: LC50 HELA-APL.
Assay [24] relates to HELA. The experiment in a line: cells. The conditions noted are these: Homo sapiens; for GI50: read-out: GI50 HELA; for CC50: read-out: LC50 HELA.
Assay [25] has as its system HELA-APL. The conditions noted are these: Cervix.
In assay [26] the test system is SK-BR3. The experiment in a line: cells. The conditions noted are these: Homo sapiens; for GI50: SK-BR-3, read-out: GI50 SK-BR3; for CC50: SK-BR-3, read-out: LC50 SK-BR3.
Assay [27] concerns DU-145. The experiment in a line: cells. As to conditions: Homo sapiens; for GI50: DU-145, read-out: GI50 DU-145; for CC50: DU-145, read-out: LC50 DU-145.
Assay [28] is described as follows: Antibacterial and antitumoral activities, general statements. The conditions noted are these: compared with safracin A / safracin B.
Assay [29] relates to PANC1. The conditions noted are these: Pancreas.
Assay [30] relates to PANC1. Briefly: cells. As to conditions: Homo sapiens; for GI50: PANC-1, read-out: GI50 PANC1; for CC50: PANC-1, read-out: LC50 PANC1.
Assay [31] deals with IGROV. The conditions noted are these: Ovary.
In assay [32] the test system is LOVO. Briefly: cells. As to conditions: Homo sapiens; for GI50: read-out: GI50 LOVO; for CC50: read-out: LC50 LOVO.
In assay [33] the test system is K-562. Briefly: cells. As to conditions: Homo sapiens; for GI50: K562, read-out: GI50 K-562; for CC50: K562, read-out: LC50 K-562.
A short description of assay [34]: Biological Activities of natural precursors (test not specified).

With `COC1=C(C)C(=O)C2=C(C1=O)[C@H](CNC(=O)[C@H](C)N)N1[C@@H](O)[C@H]3Cc4cc(C)c(OC)c(O)c4[C@@H]([C@@H]1C2)N3C` [Safracin B], in assay [1], the “antitumor and antibacterial activity (in words)” value is recorded as “possess antitumor activity in addition to antibacterial activity”.

For the compound `COC1=C(C)C(=O)C2=C(C1=O)C(CNC(=O)C(C)N)N1CC3Cc4cc(C)c(OC)c(O)c4C(N3)C1C2` (stereo not shown) [Safracin E], the “TGI K-562” value in assay [2] stood at 8.21 µM. In assay [3], this compound showed a zone of inhibition at 10 µg/disc of 9.5 mm. Further, the IC50 in assay [4] is 15.7 µM; in assay [13], > 19.6 µM. In [5], the “TGI IGROV-ET” value was 8.25 µM. Also, the “TGI SK-BR3” value in [6] was found to be 9.24 µM. For the same compound, the GI50 in [7] is 3.94 µM; in [8], 7.89 µM; in [10] it was 3.86 µM; in assay [16], 5.07 µM; in assay [18], 19.6 µM; in [19] it was 4.54 µM. In addition, the GI50 in assay [21] is 4.5 µM; in assay [23], 4.03 µM; in assay [24] it was 4.15 µM; in [26], 5.05 µM; in assay [27] it was 8.34 µM; in assay [30], 6.05 µM. Further, the concentration for 50% growth inhibition (GI50) came to 7.15 µM in assay [32] and 4.25 µM in [33]. The CC50 is 12.2 µM in [7]; > 19.6 µM in assay [8]; 15.4 µM in assay [10]; 17.5 µM in [16]; > 19.6 µM in [18]; 14.9 µM in assay [19]. Also, the CC50 in assay [21] was 17.4 µM; in [23], 13 µM; in [24], 12.8 µM; in assay [26], 17 µM; in assay [27] it was > 19.6 µM; in assay [30], > 19.6 µM. Moreover, the CC50 was > 19.6 µM in [32] and 15.9 µM in [33]. Also, in assay [9], the “TGI LOVO-DOX” value is 9.44 µM. The “TGI DU-145” value in [11] was 19.6 µM. In assay [12], the “TGI HELA” value came out at 7.29 µM. In assay [14], the “TGI HT29” value amounted to 19.6 µM. Further, the “TGI A549” value in assay [15] is >19.6 µM. In addition, the “TGI LOVO” value in assay [17] was >19.6 µM. Further, the “TGI LN-caP” value in assay [20] was 7.7 µM. Also, in assay [22], the “TGI SK-MEL-28” value worked out at 6.93 µM. In addition, the “TGI HELA-APL” value in assay [25] came to 7.25 µM. Further, the “antibacterial and antitumoral activities (in words)” value in assay [28] is “the same antibacterial and antitumoral activities as safracin B and safracin A, respectively”. Further, the “TGI PANC1” value in assay [29] was 14.7 µM. Further, the “TGI IGROV” value in assay [31] stood at 8.85 µM.

`COc1ccc(C[C@H](N)C(=O)O)cc1C` [Safracin P-14, 3-methyl-O-methyltyrosine]: the “Biological Activities” value in assay [34] was “NO ACTIVE”.

In the case of `COc1c(C)cc(C[C@H](N)C(=O)O)cc1O` [Safracin P-2, 3-hydroxy-5-methyl-O-methyltyrosine], the “Biological Activities” value in assay [34] is “NO ACTIVE”.

For the compound `CCOC1=C(C)C(=O)C2=C(C1=O)C(CNC(=O)C(C)N)N1CC3Cc4cc(C)c(OCC)c(O)c4C(C1C2)N3C` (stereo not shown) [Safracin A (OEt)], the “TGI K-562” value in [2] stood at 0.686 µM. The compound further registered a zone of inhibition at 10 µg/disc in assay [3] of 10 mm. In addition, the IC50 is 6.33 µM in assay [4] and 1.81 µM in assay [13]. Also, in assay [5], the “TGI IGROV-ET” value is 5.1 µM. Besides, the “TGI SK-BR3” value in [6] was found to be 1.16 µM. The concentration for 50% growth inhibition (GI50) stood at 0.796 µM in [7]; 1.97 µM in [8]; 0.378 µM in assay [10]; 5.72 µM in [16]; 4 µM in [18]; 2.01 µM in [19]. The 50% growth inhibitory concentration (GI50) in assay [21] amounted to 0.492 µM; in [23], 0.764 µM; in assay [24], 1.02 µM; in assay [26], 0.555 µM; in assay [27] it was 2.64 µM; in [30], 3.06 µM. Moreover, the GI50 in assay [32] is 2.03 µM; in assay [33] it was 0.311 µM. Besides, the CC50 stood at 5.77 µM in assay [7]; 9.88 µM in [8]; 1.45 µM in assay [10]; 16.9 µM in assay [16]; 12.8 µM in [18]; 13 µM in assay [19]. Further, the CC50 in assay [21] is 1.76 µM; in [23], 6.69 µM; in assay [24], 7.85 µM; in [26] it was 5.57 µM; in assay [27] it was 11 µM; in [30], 11.1 µM. Further, the CC50 is 9.61 µM in assay [32] and 1.51 µM in [33]. Besides, the “TGI LOVO-DOX” value in assay [9] turned out to be 9.84 µM. Further, in assay [11], the “TGI DU-145” value stood at 5.39 µM. The “TGI HELA” value in [12] is 2.91 µM. Moreover, the “TGI HT29” value in assay [14] is 4.41 µM. In assay [15], the “TGI A549” value is 7.17 µM. For the same compound, the “TGI LOVO” value in assay [17] was determined as 4.41 µM. The “TGI LN-caP” value in [20] is 0.742 µM. The “TGI SK-MEL-28” value in [22] was 1.9 µM. In assay [25], the “TGI HELA-APL” value is 2.32 µM. The “antibacterial and antitumoral activities (in words)” value in assay [28] was “as potent as the activities of safracin A and safracin B, respectively”. Also, the “TGI PANC1” value in assay [29] is 5.83 µM. Further, the “TGI IGROV” value in [31] came out at 0.928 µM.

`COC1=C(C)C(=O)C2=C(C1=O)[C@H](CNC(=O)[C@H](C)N)N1C[C@@H]3Cc4cc(C)c(OC)c(O)c4[C@H]([C@@H]1C2)N3C` [Safracin A, reference compound]: in assay [1], the “antitumor and antibacterial activity (in words)” value is “possess antitumor activity in addition to antibacterial activity”. Further, the “antibacterial and antitumoral activities (in words)” value in assay [28] was “less antibiotic and antitumoral activity”.
